Assays:
[1] = target: T1, p38 MAPK, active phosphomimetic mutant (Homo sapiens, UniProt Q16539, D176A); experiment: degradation of expressed mutant in HEK293T cells (immunoblot); type: cell-based
T1 construct: gene MAPK14; p38 active form expressed in HEK293T cells

[2] = target: T2, phosphorylated p38 MAPK (p-p38) (Homo sapiens, UniProt Q16539); experiment: CRBN- and proteasome-dependent degradation in cells (immunoblot DC50); type: cell-based
T2 construct: gene MAPK14; phosphorylated p38 in HEK293T cells
T2 sequence (Q16539 2-360): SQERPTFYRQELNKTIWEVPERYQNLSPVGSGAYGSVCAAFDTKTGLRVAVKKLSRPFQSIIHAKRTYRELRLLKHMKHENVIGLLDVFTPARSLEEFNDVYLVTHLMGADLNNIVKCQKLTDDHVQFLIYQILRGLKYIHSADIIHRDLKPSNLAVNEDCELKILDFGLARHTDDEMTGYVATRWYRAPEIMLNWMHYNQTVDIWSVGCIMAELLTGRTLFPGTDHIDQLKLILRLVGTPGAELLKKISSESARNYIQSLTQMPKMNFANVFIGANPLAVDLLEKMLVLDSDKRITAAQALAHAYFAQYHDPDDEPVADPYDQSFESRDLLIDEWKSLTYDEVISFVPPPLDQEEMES
T2 sequence (Q96SW2 whole entry partner): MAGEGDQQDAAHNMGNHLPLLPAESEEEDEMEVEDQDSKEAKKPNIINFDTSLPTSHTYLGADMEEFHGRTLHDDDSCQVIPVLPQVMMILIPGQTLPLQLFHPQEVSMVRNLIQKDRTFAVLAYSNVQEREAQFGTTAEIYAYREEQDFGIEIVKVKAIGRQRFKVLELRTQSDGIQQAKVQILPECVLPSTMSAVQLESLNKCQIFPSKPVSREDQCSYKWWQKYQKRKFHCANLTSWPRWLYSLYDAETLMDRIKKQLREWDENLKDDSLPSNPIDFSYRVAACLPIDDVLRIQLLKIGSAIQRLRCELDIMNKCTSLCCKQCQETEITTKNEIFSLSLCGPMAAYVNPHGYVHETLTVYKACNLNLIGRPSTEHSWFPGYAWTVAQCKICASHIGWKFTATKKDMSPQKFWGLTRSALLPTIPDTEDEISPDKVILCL

T1 sequence (Q16539 2-360 D176A): as the sequence (Q16539 2-360) above, with D175A counted along it

With `Cc1ccc(C(=O)NC2CC2)cc1-c1ccc(C(=O)c2ccc(OCCOCCOC(=O)Nc3cccc4c3C(=O)N(C3CCC(=O)NC3=O)C4=O)cc2)cc1` (centres unmarked) [compound 2, PRZ-18002] the “degradation of expressed mutant in HEK293T cells (immunoblot)” value [1] was “significant reduction of active p38 mutant (D176A) in preference to wild-type p38” and the DC50 [2] was 93 nM.

From paper PMC10037464, “Chemical Knockdown of Phosphorylated p38 Mitogen-Activated Protein Kinase (MAPK) as a Novel Approach for the Treatment of Alzheimer′s Disease” (ACS Central Science, 2023)
